Data published in US12103915B2, “TEAD inhibitors and methods of uses thereof” (Insilico Medicine IP Limited, priority 2022, dated 2024).

Experiments:
NCI-H226 cells = assay: Cell growth assay (CellTiter-Glo); assay type: cell-based, human; settings: Homo sapiens, NCI-H226, 168 h, 7 days treatment, CellTiter-Glo luminescence, read-out: H226 CTG IC50
Procedure: Example A: Cell Growth Assay
CellTiter-Glo reagent (CTG reagent, Promega, G7573).
[…] Also seeding an extra plate as Day 0 control measurement. The microplates were incubated at 37° C., 5% CO2 overnight.
Compounds were 3-fold serial diluted in DMSO and final top-concentration was […], 10 points. 0.3% DMSO as vehicle control. In addition, […] of CTG reagent was added into the extra plate and incubated at room temperature for 30 minutes and detected luminescence signals as Day 0 control by using EnVision (PerkinElmer, 2104 Mutilabel Reader).
Incubated other compounds treated plates at 37° C. for another 7 days and […] of CTG reagent was added into the plates and incubated at room temperature for 30 minutes and detected luminescence signals.
Day 0 luminescence signals were used as negative control or baseline. • Signalday0=average luminescence signals of Day 0 control cells. • Signalblank control=average luminescence signals of blank control. • SignalDMSO vehicle control=average luminescence signals of Day 7 DMSO vehicle control cells. • Signalcpds treatment=luminescence signals of Day 7 compounds treatment cells. Inhibition %=1−(Signalcpds treatment−Signalblank control)/(SignalDMSO vehicle control−Signalblank control)*100.
(Inhibitory concentration 50% (IC50) and maximum inhibition % were calculated using dose response curves.

TEAD1 = TEAD1 (Homo sapiens, UniProt P28347); assay: Thermal shift assay TEAD1; assay type: binding
Outline: (§1)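 Protein melt reactions contained TEAD1 (0.2 mg/ml final) or TEAD2 (0.08 mg/ml final) plus compound at 1 or 10 μM in 0.1% DMSO. Thermal unfolding was followed by dye fluorescence on a qPCR instrument.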

TEAD2 = TEAD2 (Homo sapiens, UniProt Q15562); assay: Thermal shift assay TEAD2; assay type: binding
Outline: as §1

TEAD3 = TEAD3 (Homo sapiens, UniProt Q99594); assay: Thermal shift assay TEAD3; assay type: binding
Outline: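 Compounds at 1 or 10 μM (0.1% DMSO, PBS dilution) mixed with 0.1 mg/ml final TEAD3 and thermal shift dye, then run through a qPCR melt to follow protein unfolding.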

TEAD4 = TEAD4 (Homo sapiens, UniProt Q15561); assay: Thermal shift assay TEAD4; assay type: binding
Outline: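 Compounds tested at 1 and 10 μM (0.1% DMSO, PBS) against TEAD4 protein at 0.1 mg/ml final. Melting followed by thermal shift dye fluorescence during a qPCR instrument ramp.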

Chain of TEAD1 (P28347 whole entry, species assumed): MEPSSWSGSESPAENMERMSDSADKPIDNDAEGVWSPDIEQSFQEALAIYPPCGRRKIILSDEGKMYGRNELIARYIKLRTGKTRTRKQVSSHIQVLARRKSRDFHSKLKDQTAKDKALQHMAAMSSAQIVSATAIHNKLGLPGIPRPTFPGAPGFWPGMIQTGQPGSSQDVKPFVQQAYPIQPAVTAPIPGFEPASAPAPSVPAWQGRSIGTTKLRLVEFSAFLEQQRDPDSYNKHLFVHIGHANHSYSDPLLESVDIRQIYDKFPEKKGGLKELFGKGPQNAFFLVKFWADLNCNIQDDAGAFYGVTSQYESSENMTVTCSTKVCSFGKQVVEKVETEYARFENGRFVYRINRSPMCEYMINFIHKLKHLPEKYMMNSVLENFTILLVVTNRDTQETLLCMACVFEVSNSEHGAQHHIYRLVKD
Chain of TEAD3 (Q99594 whole entry, species assumed): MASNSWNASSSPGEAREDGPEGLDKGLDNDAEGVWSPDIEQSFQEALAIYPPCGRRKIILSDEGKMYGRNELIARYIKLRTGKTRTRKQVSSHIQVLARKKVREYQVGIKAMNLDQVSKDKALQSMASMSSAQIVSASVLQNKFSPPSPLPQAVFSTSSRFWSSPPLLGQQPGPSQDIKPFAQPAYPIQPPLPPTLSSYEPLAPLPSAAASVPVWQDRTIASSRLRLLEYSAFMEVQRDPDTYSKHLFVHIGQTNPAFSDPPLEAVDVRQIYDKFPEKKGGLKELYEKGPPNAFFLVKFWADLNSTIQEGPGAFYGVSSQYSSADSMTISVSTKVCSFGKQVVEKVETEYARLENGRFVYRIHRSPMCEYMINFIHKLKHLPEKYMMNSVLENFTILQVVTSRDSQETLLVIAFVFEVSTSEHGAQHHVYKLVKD
Chain of TEAD4 (Q15561 whole entry, species assumed): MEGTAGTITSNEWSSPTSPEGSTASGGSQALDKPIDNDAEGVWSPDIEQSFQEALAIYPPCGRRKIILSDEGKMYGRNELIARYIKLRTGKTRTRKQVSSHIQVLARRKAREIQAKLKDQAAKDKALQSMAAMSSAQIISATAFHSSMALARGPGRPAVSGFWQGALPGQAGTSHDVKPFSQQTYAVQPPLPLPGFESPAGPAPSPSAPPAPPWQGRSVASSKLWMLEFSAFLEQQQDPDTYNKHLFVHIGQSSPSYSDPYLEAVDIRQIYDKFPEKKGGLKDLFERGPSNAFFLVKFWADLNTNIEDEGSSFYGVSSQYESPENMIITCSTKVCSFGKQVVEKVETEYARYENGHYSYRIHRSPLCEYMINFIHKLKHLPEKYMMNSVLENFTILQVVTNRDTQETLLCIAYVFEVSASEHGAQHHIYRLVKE
Chain of TEAD2 (Q15562 whole entry, species assumed): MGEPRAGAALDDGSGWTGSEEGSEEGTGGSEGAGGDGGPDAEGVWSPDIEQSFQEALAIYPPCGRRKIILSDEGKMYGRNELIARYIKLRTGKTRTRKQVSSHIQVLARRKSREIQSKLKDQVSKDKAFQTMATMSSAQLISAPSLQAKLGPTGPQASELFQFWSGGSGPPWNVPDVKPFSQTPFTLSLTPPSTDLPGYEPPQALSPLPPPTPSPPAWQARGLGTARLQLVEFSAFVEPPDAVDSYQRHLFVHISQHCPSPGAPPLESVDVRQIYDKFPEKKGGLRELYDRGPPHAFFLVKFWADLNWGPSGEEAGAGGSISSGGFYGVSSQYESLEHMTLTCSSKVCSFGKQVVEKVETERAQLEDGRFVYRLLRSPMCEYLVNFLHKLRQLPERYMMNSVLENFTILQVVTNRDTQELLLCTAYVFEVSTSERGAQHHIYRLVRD

SMILES	IC50 (NCI-H226 cells)	TEAD1 ΔTm (TEAD1)	TEAD2 ΔTm (TEAD2)	TEAD3 ΔTm (TEAD3)	TEAD4 ΔTm (TEAD4)
C[C@@H](CO)NC(=O)[C@@H]1CC1c1cc(Oc2ccc(C(F)(F)F)cc2)cc2cn(C)nc12 (single isomer, unassigned) [Example 54]	< 100 nM	8.5 °C	9.8 °C	1.2 °C	9.5 °C
C[C@H](CO)NC(=O)[C@@H]1CC1c1cc(Oc2ccc(C(F)(F)F)cc2)cc2cn(C)nc12 (single isomer, unassigned) [Example 55]	< 100 nM	11.3 °C	11.1 °C	10.2 °C	11.5 °C
Cn1cc2cc(Oc3ccc(C(F)(F)F)cc3)cc([C@H]3C[C@@H]3C(=O)N[C@@H](CO)c3ccccn3)c2n1 (single isomer, unassigned) [Example 59a]	100 to 500 nM	6.9 °C	4.7 °C	0.4 °C	7.9 °C
Cn1cc2cc(Oc3ccc(C(F)(F)F)cc3)cc([C@@H]3C[C@H]3C(=O)N[C@@H](CO)c3ccccn3)c2n1 (single isomer, unassigned) [Example 59b]	100 to 500 nM	9.4 °C	11.3 °C	13.1 °C	15.6 °C
Cn1cc2cc(Oc3ccc(C(F)(F)F)cc3)cc([C@@H]3C[C@H]3C(=O)N3CC(C)(O)C3)c2n1 (single isomer, unassigned) [Example 60]	< 100 nM	9.5 °C	12.7 °C	11.2 °C	12.3 °C
Cn1cc2cc(Oc3ccc(C(F)(F)F)cc3)cc([C@@H]3C[C@H]3C(=O)N3CCO[C@H](CO)C3)c2n1 (single isomer, unassigned) [Example 61]	< 100 nM	9.3 °C	12.2 °C	0.8 °C	10.4 °C
Cn1cc2cc(Oc3ccc(C(F)(F)F)cc3)cc([C@@H]3C[C@H]3C(=O)N3CCO[C@@H](CO)C3)c2n1 (single isomer, unassigned) [Example 62]	< 100 nM	7.4 °C	10.6 °C	1.2 °C	7.7 °C
Cn1cc2cc(Oc3ccc(C(F)(F)F)cc3)cc([C@@H]3C[C@H]3C(=O)NCC#N)c2n1 (single isomer, unassigned) [Example 66]	< 100 nM	11.1 °C	14.7 °C	10.6 °C	11.7 °C

The next lines start with the values.

IC50 (NCI-H226 cells)	TEAD1 ΔTm (TEAD1)	TEAD2 ΔTm (TEAD2)	TEAD3 ΔTm (TEAD3)	TEAD4 ΔTm (TEAD4)	SMILES
100 to 500 nM	5.2 °C	10.2 °C	1.4 °C	5.2 °C	CNC(=O)[C@@H]1C[C@H]1c1cc(Oc2ccc(C(F)(F)F)cc2)cc2cn(C)nc12 (single isomer, unassigned) [Example 34a]
1000 to 30000 nM	4.7 °C	9.8 °C	−0.5 °C	4.3 °C	[2H]C([2H])([2H])NC(=O)[C@@H]1C[C@H]1c1cc(Oc2ccc(C(F)(F)F)cc2)cc2cn(C)nc12 (single isomer, unassigned) [Example 52]
< 100 nM	9.2 °C	13.7 °C	9.8 °C	10.5 °C	[2H]C([2H])([2H])NC(=O)[C@H]1CC1c1cc(Oc2ccc(C(F)(F)F)cc2)cc2cn(C)nc12 (single isomer, unassigned) [Example 53]
500 to 1000 nM	5.4 °C	6.5 °C	−0.3 °C	2.6 °C	CC(C)NC(=O)[C@@H]1C[C@H]1c1cc(Oc2ccc(C(F)(F)F)cc2)cc2cn(C)nc12 (single isomer, unassigned) [Example 56a]
< 100 nM	9.1 °C	10.0 °C	8.1 °C	12.5 °C	CC(C)NC(=O)[C@H]1C[C@@H]1c1cc(Oc2ccc(C(F)(F)F)cc2)cc2cn(C)nc12 (single isomer, unassigned) [Example 56b]
